Values joined by “and” are separate entries in the source; they are usually repeats but may differ in a detail not shown here. Identical values can stand only once. Inconclusive results and toxic doses are left out. Rule as the data show it: active = T/C of 150% or more; inactive = T/C below 125%.
Test system: L1210 leukemia ip in BDF1 mice, survival T/C
Experiment: NCI In Vivo Anticancer Drug Screen. Data for tumor model L1210 Leukemia (intraperitoneal) in B6D2F1 (BDF1) mice
Settings: endpoint: mean survival time, higher = longer survival
Outline: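 Read-out is survival time, reported as the treated-group measurement over the vehicle-control measurement.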

[1] = dose: 100.0 mg/kg/injection, schedule: Q04DX002 (ip), vehicle: saline with Tween-80
[2] = dose: 200.0 mg/kg/injection, schedule: Q04DX002 (ip), vehicle: saline with Tween-80
[3] = dose: 400.0 mg/kg/injection, schedule: Q04DX002 (ip), vehicle: saline with Tween-80
[4] = dose: 100.0 mg/kg/injection, schedule: Q01DX009 (ip), vehicle: saline with Tween-80
[5] = dose: 100.0 mg/kg/injection, schedule: Q04DX003 (ip), vehicle: saline with Tween-80
[6] = dose: 200.0 mg/kg/injection, schedule: Q01DX009 (ip), vehicle: saline with Tween-80
[7] = dose: 200.0 mg/kg/injection, schedule: Q04DX003 (ip), vehicle: saline with Tween-80
[8] = dose: 400.0 mg/kg/injection, schedule: Q04DX003 (ip), vehicle: saline with Tween-80
[9] = dose: 75.0 mg/kg/injection, schedule: Q01DX001 (ip), vehicle: other
[10] = dose: 150.0 mg/kg/injection, schedule: Q01DX001 (ip), vehicle: other
[11] = dose: 100.0 mg/kg/injection, schedule: Q01DX001 (ip), vehicle: carboxymethylcellulose (CMC)
[12] = dose: 200.0 mg/kg/injection, schedule: Q01DX001 (ip), vehicle: carboxymethylcellulose (CMC)
[13] = dose: 400.0 mg/kg/injection, schedule: Q01DX001 (ip), vehicle: carboxymethylcellulose (CMC)
[14] = dose: 100.0 mg/kg/injection, schedule: Q04DX003 (ip), vehicle: Klucel (hydroxypropylcellulose) (HPC)
[15] = dose: 200.0 mg/kg/injection, schedule: Q04DX003 (ip), vehicle: Klucel (hydroxypropylcellulose) (HPC)
[16] = dose: 400.0 mg/kg/injection, schedule: Q04DX003 (ip), vehicle: Klucel (hydroxypropylcellulose) (HPC)
[17] = dose: 50.0 mg/kg/injection, schedule: Q01DX001 (ip), vehicle: saline
[18] = dose: 100.0 mg/kg/injection, schedule: Q01DX001 (ip), vehicle: saline
[19] = dose: 200.0 mg/kg/injection, schedule: Q01DX001 (ip), vehicle: saline
[20] = dose: 400.0 mg/kg/injection, schedule: Q01DX001 (ip), vehicle: saline
[21] = dose: 50.0 mg/kg/injection, schedule: Q01DX009 (ip), vehicle: saline with Tween-80
[22] = dose: 100.0 mg/kg/injection, schedule: Q04DX002 (ip), vehicle: Klucel (hydroxypropylcellulose) (HPC)
[23] = dose: 200.0 mg/kg/injection, schedule: Q04DX002 (ip), vehicle: Klucel (hydroxypropylcellulose) (HPC)
[24] = dose: 400.0 mg/kg/injection, schedule: Q04DX002 (ip), vehicle: Klucel (hydroxypropylcellulose) (HPC)
[25] = dose: 100.0 mg/kg/injection, schedule: Q04DX003 (ip), vehicle: saline
[26] = dose: 200.0 mg/kg/injection, schedule: Q04DX003 (ip), vehicle: saline
[27] = dose: 400.0 mg/kg/injection, schedule: Q04DX003 (ip), vehicle: saline
[28] = dose: 400.0 mg/kg/injection, schedule: Q01DX009 (ip), vehicle: saline with Tween-80

Measured: T/C

Cc1c2oc3c(C)ccc(C(=O)OCCN4CCN(c5ccccc5)CC4)c3nc-2c(C(=O)OCCN2CCN(c3ccccc3)CC2)c(N)c1=O
inactive: [1] 92 % of control | [2] 103 % of control | [3] 103 % of control

COc1ccccc1C(C#N)NCCCNC(C#N)c1ccccc1OC (centres undefined)
inactive: dose: 10.0 mg/kg/injection, schedule: Q01DX001 (ip), vehicle: saline 89 % of control | dose: 20.0 mg/kg/injection, schedule: Q01DX001 (ip), vehicle: saline 110 % of control

NC(=O)c1nccnc1Cl
inactive: [4] 91 % of control | [5] 100 % of control | [6] 98 % of control | [7] 97 % of control | [8] 110 % of control

CC1(O)CC(=O)C2C3C=CC(C3)C21 (centres undefined)
inactive: [9] 98 % of control | [10] 104 % of control

CNc1nnnn1-c1ccccc1C
inactive: dose: 100.0 mg/kg/injection, schedule: Q01DX001 (ip), vehicle: Klucel (hydroxypropylcellulose) (HPC) 93 % of control | dose: 200.0 mg/kg/injection, schedule: Q01DX001 (ip), vehicle: Klucel (hydroxypropylcellulose) (HPC) 98 % of control | dose: 400.0 mg/kg/injection, schedule: Q01DX001 (ip), vehicle: Klucel (hydroxypropylcellulose) (HPC) 105 % of control

COc1ccc(OC(C)=O)c(/C=C\C=O)c1
inactive: [11] 94 % of control | [12] 100 % of control | [13] 100 % of control

O=C(OCC(COC(=O)c1ccccc1)(COC(=O)c1ccccc1)[N+](=O)[O-])c1ccccc1
inactive: [14] 92 % of control | [15] 92 % of control | [16] 94 % of control

Fc1ccc(NC(=S)S)cc1
inactive: dose: 6.25 mg/kg/injection, schedule: Q04DX003 (ip), vehicle: saline with Tween-80 94 % of control | dose: 12.5 mg/kg/injection, schedule: Q04DX003 (ip), vehicle: saline with Tween-80 99 % of control | dose: 25.0 mg/kg/injection, schedule: Q04DX003 (ip), vehicle: saline with Tween-80 91 % of control

CCOC1c2ccccc2-c2ccccc2N1C(=O)c1ccccc1 (centres undefined)
inactive: dose: 50.0 mg/kg/injection, schedule: Q04DX003 (ip), vehicle: saline with Tween-80 98 % of control | [5] 106 % of control | [7] 97 % of control and 109 % of control | [8] 103 % of control

O=C(O)CCC(=O)Nc1ccccc1CC(c1c[nH]c2ccccc12)c1c[nH]c2ccccc12
inactive: [17] 106 % of control | [18] 104 % of control | [19] 106 % of control | [20] 104 % of control

CCCCCCNC(N)=O
inactive: [21] 93 % of control and 100 % of control | [4] 100 % of control and 101 % of control | [6] 100 % of control and 101 % of control

CCCCNC(=O)Nc1ccc(Cl)cc1C(=O)c1ccccc1
inactive: [22] 105 % of control | [23] 102 % of control | [24] 94 % of control

NCC(=O)Oc1c(Cl)c(Cl)c(Cl)c(Cl)c1Cl
inactive: dose: 75.0 mg/kg/injection, schedule: Q01DX001 (ip), vehicle: saline 104 % of control

CCCCCCCCCCCCCCCCNS(=O)(=O)c1ccc2sc(SC)nc2c1
inactive: [7] 90 % of control | [8] 90 % of control

CCC[CH2][Sn]([CH2]CCC)([CH2]CCC)[CH2]c1ccccc1
inactive: [25] 98 % of control | [26] 102 % of control | [27] 88 % of control

C/C(=N/O)c1c[n+]([O-])ccn1
inactive: dose: 100.0 mg/kg/injection, schedule: Q01DX009 (ip), vehicle: saline 102 % of control | [14] 94 % of control | [25] 101 % of control | dose: 200.0 mg/kg/injection, schedule: Q01DX009 (ip), vehicle: saline 94 % of control | [15] 94 % of control | [26] 98 % of control | dose: 400.0 mg/kg/injection, schedule: Q01DX009 (ip), vehicle: saline 96 % of control | [16] 100 % of control | [27] 102 % of control

COc1ccc(NC(=O)C(CC(C(C)=O)C(=O)Nc2ccc(OC)cc2)C(C)=O)cc1 (centres undefined)
inactive: [4] 87 % of control | [28] 88 % of control

CCOc1ccccc1NC(=O)c1cccc(C(=O)Nc2ccccc2OCC)c1
inactive: dose: 100.0 mg/kg/injection, schedule: Q01DX009 (ip), vehicle: Klucel (hydroxypropylcellulose) (HPC) 92 % of control | [14] 90 % of control | dose: 200.0 mg/kg/injection, schedule: Q01DX009 (ip), vehicle: Klucel (hydroxypropylcellulose) (HPC) 88 % of control | [15] 96 % of control | dose: 400.0 mg/kg/injection, schedule: Q01DX009 (ip), vehicle: Klucel (hydroxypropylcellulose) (HPC) 88 % of control | [16] 90 % of control

CC(C)(C)O[Si](OCC(F)(F)C(F)(F)C(F)(F)C(F)(F)C(F)(F)C(F)F)(OCC(F)(F)C(F)(F)C(F)(F)C(F)(F)C(F)(F)C(F)F)OC(C)(C)C
inactive: dose: 50.0 mg/kg/injection, schedule: Q01DX001 (ip), vehicle: carboxymethylcellulose (CMC) 100 % of control | [11] 94 % of control | [12] 94 % of control | [13] 94 % of control

C(Cc1ccccc1)=C(CCc1ccccc1)CCc1ccccc1
inactive: dose: 100.0 mg/kg/injection, schedule: Q01DX001 (ip), vehicle: saline with Tween-80 104 % of control | dose: 200.0 mg/kg/injection, schedule: Q01DX001 (ip), vehicle: saline with Tween-80 93 % of control | dose: 400.0 mg/kg/injection, schedule: Q01DX001 (ip), vehicle: saline with Tween-80 93 % of control

CCCCCCCCCCCC(=O)Nc1ccc(NC(C)=O)cc1
inactive: [4] 96 % of control and 104 % of control | [1] 93 % of control and 94 % of control | [5] 95 % of control | [6] 93 % of control and 96 % of control | [2] 111 % of control and 91 % of control | [7] 108 % of control | [28] 96 % of control | [3] 96 % of control and 102 % of control | [8] 95 % of control

CCC(C)C(C)NC(C)=O (centres undefined)
inactive: [25] 101 % of control | [26] 113 % of control

CCN(CC)C(=O)SCCSC(=O)N(CC)CC
inactive: dose: 25.0 mg/kg/injection, schedule: Q01DX009 (ip), vehicle: saline with Tween-80 110 % of control | [21] 110 % of control | [4] 93 % of control

Nc1ccc2c(c1)C(=O)c1cc(N)ccc1-2
inactive: [11] 102 % of control | [14] 103 % of control | [12] 102 % of control | [15] 103 % of control | [13] 98 % of control | [16] 108 % of control

CCc1nc(N)nc(N)c1-c1ccc([N+](=O)[O-])cc1O
inactive: [14] 92 % of control | [15] 93 % of control | [16] 89 % of control

CCN(CC)P(=O)(OCC(C)C(C)=O)N(CCCl)CCCl (centres undefined)
inactive: dose: 100.0 mg/kg/injection, schedule: Q04DX003 (ip), vehicle: DMSO 115 % of control | dose: 200.0 mg/kg/injection, schedule: Q04DX003 (ip), vehicle: DMSO 113 % of control | dose: 400.0 mg/kg/injection, schedule: Q04DX003 (ip), vehicle: DMSO 112 % of control

CC1CCCCC12OCCO2 (centres undefined)
inactive: [4] 97 % of control | [5] 101 % of control | [6] 91 % of control | [7] 93 % of control | [8] 97 % of control

Cc1nn(C)c2c(N)ncnc12
inactive: [9] 100 % of control | [10] 102 % of control | dose: 300.0 mg/kg/injection, schedule: Q01DX001 (ip), vehicle: other 98 % of control

O=c1[nH]c2ccccc2nc1C(Cl)(Cl)Cl
inactive: [22] 112 % of control | [23] 105 % of control

COc1ccc(CN2CCCN(Cc3ccc(OC)cc3OC)C2c2cccnc2)c(OC)c1
inactive: [17] 94 % of control | [18] 100 % of control | [19] 103 % of control | [20] 100 % of control

COC(=O)C1(C)COP(=O)(NC2CCCCC2)OC1 (centres undefined)
inactive: [18] 94 % of control | [19] 97 % of control | [20] 108 % of control

O=C(O)CCn1c(=O)n(CCC(=O)O)c(=O)n(CCC(=O)O)c1=O
inactive: [22] 100 % of control | [23] 93 % of control | [24] 86 % of control

From PubChem BioAssay AID248 (DTP/NCI, 2004)
